In brackets after ≈: the same amount, converted by molar mass.
Tests used:
Assay type in all cases: cell-based, Plasmodium falciparum
[1] = test system: P. falciparum D6 (CDC/Sierra Leone I, D-6); assay: In vitro screening protocol I, [3H]-hypoxanthine incorporation, D6; conditions: In vitro screening protocol I, P. falciparum D6; for IC50: Plasmodium falciparum, read-out: IC50 D6
Description: (§1) Agents Chemother. 27 (4) (1985) 525-530). The system was limited to the assessment of the intrinsic activity against the erythrocytic asexual life cycle (blood schizontocides). Two Plasmodium falciparum clones from CDC/Indochina III (W-2) and CDC/Sierra Leone I (D-6) (Oduola A M, Weatherly N F, Bowdre J H, Desjardins R E. Plasmodium falciparum: cloning by single-erythrocyte micromanipulation and heterogeneity in vitro. Exp Parasitol. 66 (1) (1988) 86-95) were used for all assays. TM91C235, a multiple drug resistant isolate from Thailand (Antimicrob. Agents Chemother. 46 (8) (2002) 2627 and Antimicrob. Agents Chemother. 43 (3) (1999) 598-602), was used for the prescreening assay. W-2 is resistant to chloroquine, quinine, and pyrimethamine and susceptible to mefloquine. D-6 tends to be more resistant to mefloquine and susceptible to chloroquine, quinine, and pyrimethamine. All documents cited in this paragraph are incorporated by reference in their entirety.
(§2) All parasites were maintained in continuous long term cultures in RPMI-1640 medium supplemented with 6% washed human A positive (A+)(erythrocytes, 25 mM Hepes, […], and 10% heat inactivated A+ human plasma or ALBUMAX® (lipid-rich bovine serum albumin; Invitrogen, Carlsbad, Calif.). All cultures and assays were conducted at 37° C. under an atmosphere of 5% CO2 and 5% O2, with a balance of N2.
(§3) The prescreening assay uses TM91C235 diluted at a 0.4% parasitemia in a 1% hematocrit in folic acid free and p-aminobenzoic acid free media RPMI-1640 and ALBUMAX®. […] The compound is further diluted in folate free (FF) culture medium with ALBUMAX® for the first initial starting concentration. The rest of the stock drug solution was kept at −70° C. The isolate was preexposed, in duplicate, at three concentrations (25,000 ng/ml, 2,500 ng/ml, and […]) of the test compound for 48 hr in a 96-well microtiter plate (MTP) using the BIOMEK® 2000 automated laboratory workstation. Each MTP contains chloroquine as control to assess the relative activity of the compound and to monitor the response of TM91C235.
(§4) After the preincubation, [^3H]-hypoxanthine was added to each well of the MTP. (The assay relies on the incorporation of radiolabeled hypoxanthine by the parasites, which indicates reproduction, and inhibition of isotope incorporation was attributed to activity of known or candidate antimalarial drugs). After 72 hours of total incubation time, the MTP were frozen to lyse the erythrocytes and parasites. The parasite DNA was recovered by harvesting the lysate onto glass-fiber filter plates using a Packard FilterMate™ Cell Harvester. The radioactivity was counted on a Packard TopCount™ microplate scintillation counter.
(§5) The serial dilution assay was conducted using the same assay conditions and stock solution of the compound used for the preliminary screen, described above. Both the D-6 and the W-2 clones were used. The compounds were diluted two-fold over 11 different concentration ranges with a starting concentration that was based on the preliminary screen. For each drug, the concentration response profile was determined and 50% inhibitory concentrations (IC50) were determined by using a non-linear, logistic dose response analysis program. […] For each assay, the IC50 for each clone was determined against the known antimalarials chloroquine and mefloquine. These control values established the compound's relative parasite susceptibility profile compared to known antimalarials. […]

P. falciparum TM91C235 = assay: In vitro screening protocol I, [3H]-hypoxanthine incorporation, TM91C235; conditions: In vitro screening protocol I, P. falciparum TM91C235; for IC50: Plasmodium falciparum, read-out: IC50 TM91C235
Description: as §1, §2, §3, §4, §5

[2] = test system: P. falciparum W2 (CDC/Indochina III, W-2); assay: In vitro screening protocol I, [3H]-hypoxanthine incorporation, W2; conditions: In vitro screening protocol I, P. falciparum W2; for IC50: Plasmodium falciparum, read-out: IC50 W2
Description: as §1, §2, §3, §4, §5

CC[C@H]1OC(=O)[C@H](C)[C@@H](O[C@H]2C[C@@](C)(OC)[C@@H](O)[C@H](C)O2)[C@H](C)[C@@H](O[C@@H]2O[C@H](C)C[C@H](N(C)C)[C@H]2O)[C@](C)(O)C[C@@H](C)CN(CCCNCc2ccc3ccccc3n2)[C@H](C)[C@@H](O)[C@]1(C)O [Example 1, 9a-{3-[(Quinolin-2-yl-methyl)amino]propyl}-9-deoxo-9-dihydro-9a-aza-9a-homoerythromycin A]
IC50 [1]: 0.1 to 0.2 µg/mL (≈ 0.107 to 0.214 µM)
IC50 (P. falciparum TM91C235): < 0.1 µg/mL
IC50 [2]: < 0.1 µg/mL

CC[C@H]1OC(=O)[C@H](C)[C@@H](O)[C@H](C)[C@@H](O[C@@H]2O[C@H](C)C[C@H](N(C)C)[C@H]2O)[C@](C)(O)C[C@@H](C)CN(CCCNCc2ccc3ccccc3n2)[C@H](C)[C@@H](O)[C@]1(C)O [Example 2, 9a-{3-[(Quinolin-2-yl-methyl)amino]propyl}-3-O-decladinosyl-9-deoxo-9-dihydro-9a-aza-9a-homoerythromycin A]
IC50 [1]: 0.2 to 1 µg/mL (≈ 0.258 to 1.29 µM)
IC50 (P. falciparum TM91C235): 0.1 to 0.2 µg/mL (≈ 0.129 to 0.258 µM)
IC50 [2]: 0.1 to 0.2 µg/mL (≈ 0.129 to 0.258 µM)

CC[C@H]1OC(=O)[C@H](C)[C@@H](O)[C@H](C)[C@@H](O)[C@](C)(O)C[C@@H](C)CN(CCCNCc2ccc3ccccc3n2)[C@H](C)[C@@H](O)[C@]1(C)O [Example 3, 9a-{3-[(Quinolin-2-yl-methyl)amino]propyl}-3-O-decladinosyl-5-O-dedesosaminyl-9-deoxo-9-dihydro-9a-aza-9a-homoerythromycin A]
IC50 [1]: 3.5 to 5 µg/mL (≈ 5.67 to 8.09 µM)
IC50 (P. falciparum TM91C235): 1 to 2.5 µg/mL (≈ 1.62 to 4.05 µM)
IC50 [2]: 0.2 to 1 µg/mL (≈ 0.324 to 1.62 µM)

CC[C@H]1OC(=O)[C@H](C)[C@@H](O[C@H]2C[C@@](C)(OC)[C@@H](O)[C@H](C)O2)[C@H](C)[C@@H](O[C@@H]2O[C@H](C)C[C@H](N(C)C)[C@H]2O)[C@](C)(O)C[C@@H](C)CN(CCCNCc2cnc3ccccc3c2)[C@H](C)[C@@H](O)[C@]1(C)O [Example 4, 9a-{3-[(Quinolin-3-yl-methyl)amino]propyl}-9-deoxo-9-dihydro-9a-aza-9a-homoerythromycin A]
IC50 [1]: 0.1 to 0.2 µg/mL (≈ 0.107 to 0.214 µM)
IC50 (P. falciparum TM91C235): < 0.1 µg/mL
IC50 [2]: < 0.1 µg/mL

CC[C@H]1OC(=O)[C@H](C)[C@@H](O)[C@H](C)[C@@H](O[C@@H]2O[C@H](C)C[C@H](N(C)C)[C@H]2O)[C@](C)(O)C[C@@H](C)CN(CCCNCc2cnc3ccccc3c2)[C@H](C)[C@@H](O)[C@]1(C)O [Example 5, 9a-{3-[(Quinolin-3-yl-methyl)amino]propyl}-3-O-decladinosyl-9-deoxo-9-dihydro-9a-aza-9a-homoerythromycin A]
IC50 [1]: 0.2 to 1 µg/mL (≈ 0.258 to 1.29 µM)
IC50 (P. falciparum TM91C235): 0.1 to 0.2 µg/mL (≈ 0.129 to 0.258 µM)
IC50 [2]: 0.1 to 0.2 µg/mL (≈ 0.129 to 0.258 µM)

CCC1OC(=O)C(C)C(O)C(C)C(O)C(C)(O)CC(C)CN(CCCNCc2cnc3ccccc3c2)C(C)C(O)C1(C)O (stereo not drawn) [Example 6, 9a-{3-[(Quinolin-3-yl-methyl)amino]propyl}-3-O-decladinosyl-5-O-dedesosaminyl-9-deoxo-9-dihydro-9a-aza-9a-homoerythromycin A]
IC50 D6 [1]: F (2800 < X ≦ 3500)
IC50 TM91C235 (P. falciparum TM91C235): D (1000 < X ≦ 2500)
IC50 W2 [2]: C (200 < X ≦ 1000)

CCOc1ccc2ccccc2c1CNCCCN1C[C@H](C)C[C@@](C)(O)[C@H](O[C@@H]2O[C@H](C)C[C@H](N(C)C)[C@H]2O)[C@@H](C)[C@H](O[C@H]2C[C@@](C)(OC)[C@@H](O)[C@H](C)O2)[C@@H](C)C(=O)O[C@H](CC)[C@@](C)(O)[C@H](O)[C@H]1C [Example 7, 9a-[3-({[2-(Ethyloxy)-naphthalen-1-yl]methyl}amino)propyl]-9-deoxo-9-dihydro-9a-aza-9a-homoerythromycin A]
IC50 [1]: < 0.1 µg/mL
IC50 (P. falciparum TM91C235): < 0.1 µg/mL
IC50 [2]: < 0.1 µg/mL

CC[C@H]1OC(=O)[C@H](C)[C@@H](O)[C@H](C)[C@@H](O[C@@H]2O[C@H](C)C[C@H](N(C)C)[C@H]2O)[C@](C)(O)C[C@@H](C)CN(CCCNCc2cccc3ccccc23)[C@H](C)[C@@H](O)[C@]1(C)O [Example 9, 9a-{3-[(Naphtalen-1-yl-methyl)amino]propyl}-3-O-decladinosyl-9-deoxo-9-dihydro-9a-aza-9a-homoerythromycin A]
IC50 D6 [1]: A (X ≦ 100)
IC50 TM91C235 (P. falciparum TM91C235): A (X ≦ 100)
IC50 W2 [2]: A (X ≦ 100)

CC[C@H]1OC(=O)[C@H](C)[C@@H](O[C@H]2C[C@@](C)(OC)[C@@H](O)[C@H](C)O2)[C@H](C)[C@@H](O[C@@H]2O[C@H](C)C[C@H](N(C)C)[C@H]2O)[C@](C)(O)C[C@@H](C)CN(CCCNCc2ccncc2)[C@H](C)[C@@H](O)[C@]1(C)O [Example 10, 9a-{3-[(Pyridine-4-yl-methyl)amino]propyl}-9-deoxo-9-dihydro-9a-aza-9a-homoerythromycin A]
IC50 D6 [1]: C (200 < X ≦ 1000)
IC50 TM91C235 (P. falciparum TM91C235): C (200 < X ≦ 1000)
IC50 W2 [2]: C (200 < X ≦ 1000)

CC[C@H]1OC(=O)[C@H](C)[C@@H](O)[C@H](C)[C@@H](O[C@@H]2O[C@H](C)C[C@H](N(C)C)[C@H]2O)[C@](C)(O)C[C@@H](C)CN(CCCNCc2ccncc2)[C@H](C)[C@@H](O)[C@]1(C)O [Example 11, 9a-{3-[(Pyridine-4-yl-methyl)amino]propyl}-3-O-decladinosyl-9-deoxo-9-dihydro-9a-aza-9a-homoerythromycin A]
IC50 D6 [1]: G (3500 < X ≦ 5000)
IC50 TM91C235 (P. falciparum TM91C235): F (2800 < X ≦ 3500)
IC50 W2 [2]: C (200 < X ≦ 1000)

CC[C@H]1OC(=O)[C@H](C)[C@@H](O[C@H]2C[C@@](C)(OC)[C@@H](O)[C@H](C)O2)[C@H](C)[C@@H](O[C@@H]2O[C@H](C)C[C@H](N(C)C)[C@H]2O)[C@](C)(O)C[C@@H](C)CN(CCCNCc2cccnc2)[C@H](C)[C@@H](O)[C@]1(C)O [Example 12, 9a-{3-[(Pyridine-3-yl-methyl)amino]propyl}-9-deoxo-9-dihydro-9a-aza-9a-homoerythromycin A]
IC50 D6 [1]: C (200 < X ≦ 1000)
IC50 TM91C235 (P. falciparum TM91C235): C (200 < X ≦ 1000)
IC50 W2 [2]: C (200 < X ≦ 1000)

CC[C@H]1OC(=O)[C@H](C)[C@@H](O)[C@H](C)[C@@H](O[C@@H]2O[C@H](C)C[C@H](N(C)C)[C@H]2O)[C@](C)(O)C[C@@H](C)CN(CCCNCc2cccnc2)[C@H](C)[C@@H](O)[C@]1(C)O [Example 13, 9a-{3-[(Pyridine-3-yl-methyl)amino]propyl}-3-O-decladinosyl-9-deoxo-9-dihydro-9a-aza-9a-homoerythromycin A]
IC50 D6 [1]: G (3500 < X ≦ 5000)
IC50 TM91C235 (P. falciparum TM91C235): D (1000 < X ≦ 2500)
IC50 W2 [2]: C (200 < X ≦ 1000)

CC[C@H]1OC(=O)[C@H](C)[C@@H](O[C@H]2C[C@@](C)(OC)[C@@H](O)[C@H](C)O2)[C@H](C)[C@@H](O[C@@H]2O[C@H](C)C[C@H](N(C)C)[C@H]2O)[C@](C)(O)C[C@@H](C)CN(CCCNCc2ccnc3ccccc23)[C@H](C)[C@@H](O)[C@]1(C)O [Example 14, 9a-{3-[(Quinolin-4-yl-methyl)amino]propyl}-9-deoxo-9-dihydro-9a-aza-9a-homoerythromycin A]
IC50 D6 [1]: B (100 < X ≦ 200)
IC50 TM91C235 (P. falciparum TM91C235): B (100 < X ≦ 200)
IC50 W2 [2]: B (100 < X ≦ 200)

CC[C@H]1OC(=O)[C@H](C)[C@@H](O[C@H]2C[C@@](C)(OC)[C@@H](O)[C@H](C)O2)[C@H](C)[C@@H](O[C@@H]2O[C@H](C)C[C@H](N(C)C)[C@H]2O)[C@](C)(O)C[C@@H](C)CN(CCNCc2cccc3ccccc23)[C@H](C)[C@@H](O)[C@]1(C)O [Example 16, 9a-{2-[(Naphtalen-1-yl-methyl)amino]ethyl}-9-deoxo-9-dihydro-9a-aza-9a-homoerythromycin A]
IC50 D6 [1]: B (100 < X ≦ 200)
IC50 TM91C235 (P. falciparum TM91C235): A (X ≦ 100)
IC50 W2 [2]: A (X ≦ 100)

From patent US20090105301A1, “9A-SUBSTITUTED AZALIDES FOR THE TREATMENT OF MALARIA” (priority 2006, published 2009)
